Counter-ions that a name gives are not always drawn.
biological target: Human BACE-1 (Homo sapiens, UniProt P56817); test: Test 1: Inhibition of Human BACE-1; type: biochemical; conditions: Test 1; recombinant BACE-1 (extracellular domain), acetate buffer pH 4.5, 1 hour with test compound at room temperature, fluorescence-quenched peptide substrate; read-out: Bace IC50
Sequence (P56817 46-457 limits assumed): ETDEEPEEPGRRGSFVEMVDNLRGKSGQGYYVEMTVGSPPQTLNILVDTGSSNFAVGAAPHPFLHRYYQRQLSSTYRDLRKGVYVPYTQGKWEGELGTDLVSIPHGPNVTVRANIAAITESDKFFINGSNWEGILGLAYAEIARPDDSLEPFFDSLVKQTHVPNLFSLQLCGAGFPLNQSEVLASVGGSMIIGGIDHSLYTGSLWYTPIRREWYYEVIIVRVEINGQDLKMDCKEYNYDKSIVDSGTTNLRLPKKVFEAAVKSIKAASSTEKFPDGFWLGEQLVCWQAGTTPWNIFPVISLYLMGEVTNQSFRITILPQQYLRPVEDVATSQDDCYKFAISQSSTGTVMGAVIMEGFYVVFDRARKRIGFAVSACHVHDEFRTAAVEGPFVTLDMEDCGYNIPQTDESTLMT

Row | SMILES | IC50
1 | CC1(c2cccc(NC(=O)c3cnc(O)cn3)c2)COCC(N)=N1 (centres unmarked) [Example 19, 5-Hydroxy-pyrazine-2-carboxylic acid [3-(5-amino-3-methyl-3,6-dihydro-2H-[1,4]oxazin-3-yl)-phenyl]-amide] | 2000 nM
2 | CC1(c2cccc(NC(=O)c3cc(Br)co3)c2)COCC(N)=N1 (centres unmarked) [Example 20, 4-Bromo-furan-2-carboxylic acid [3-(5-amino-3-methyl-3,6-dihydro-2H-[1,4]oxazin-3-yl)-phenyl]-amide] | 350 nM
3 | CC1(c2cccc(NC(=O)c3coc(C(F)(F)F)c3)c2)COCC(N)=N1 (centres unmarked) [Example 23, 5-Trifluoromethyl-furan-3-carboxylic acid [3-(5-amino-3-methyl-3,6-dihydro-2H-[1,4]oxazin-3-yl)-phenyl]-amide] | 11000 nM
4 | CC1(c2cccc(NC(=O)c3ccc(Br)cc3)c2)COCC(N)=N1 (centres unmarked) [Example 24, N-[3-(5-Amino-3-methyl-3,6-dihydro-2H-[1,4]oxazin-3-yl)-phenyl]-4-bromo-benzamide] | 970 nM
5 | CC1(c2cccc(NC(=O)C3CCCCC3)c2)COCC(N)=N1 (centres unmarked) [Example 25, reference compound] | > 130000 nM
6 | CC1(c2cccc(NC(=O)C3CCC(F)(F)CC3)c2)COCC(N)=N1 (centres unmarked) [Example 26, reference compound] | > 130000 nM
7 | Cc1ccc(C(=O)Nc2cccc(C3(C)COCC(N)=N3)c2)nc1 (centres unmarked) [Example 27, 5-Methyl-pyridine-2-carboxylic acid [3-(5-amino-3-methyl-3,6-dihydro-2H-[1,4]oxazin-3-yl)-phenyl]-amide] | 1400 nM
8 | CC1(c2cccc(NC(=O)c3cccnc3)c2)COCC(N)=N1 (centres unmarked) [Example 28, N-[3-(5-Amino-3-methyl-3,6-dihydro-2H-[1,4]oxazin-3-yl)-phenyl]-nicotinamide] | 60000 nM
9 | Cc1cc(Br)cnc1C(=O)Nc1cccc([C@]2(C)COCC(=N)N2)c1 [Example 29, 5-Bromo-3-methyl-pyridine-2-carboxylic acid [3-((R)-5-amino-3-methyl-3,6-dihydro-2H-[1,4]oxazin-3-yl)-phenyl]-amide] | 56 nM
10 | COc1ccc(C(=O)Nc2cccc([C@]3(C)COCC(N)=N3)c2)nc1 [Example 30, 5-Methoxy-pyridine-2-carboxylic acid [3-((R)-5-amino-3-methyl-3,6-dihydro-2H-[1,4]oxazin-3-yl)-phenyl]-amide] | 330 nM
11 | NC1=NC(CF)(c2cccc(NC(=O)c3ccc(Br)cn3)c2)COC1 (centres unmarked) [Example 31, 5-Bromo-pyridine-2-carboxylic acid [3-(5-amino-3-fluoromethyl-3,6-dihydro-2H-[1,4]oxazin-3-yl)-phenyl]-amide] | 160 nM
12 | NC1=NC(CF)(c2cc(Cl)cc(NC(=O)c3ccc(Br)cn3)c2)COC1 (centres unmarked) [Example 32, 5-Bromo-pyridine-2-carboxylic acid [3-(5-amino-3-fluoromethyl-3,6-dihydro-2H-[1,4]oxazin-3-yl)-5-chloro-phenyl]-amide] | 1400 nM
13 | NC1=N[C@](CF)(c2cccc(NC(=O)c3ccc(Br)cn3)c2)COC1 [Example 33, 5-Bromo-pyridine-2-carboxylic acid [3-((R)-5-amino-3-fluoromethyl-3,6-dihydro-2H-[1,4]oxazin-3-yl)-phenyl]-amide] | 130 nM
14 | NC1=NC(c2cccc(NC(=O)c3ccc(Br)cn3)c2)(C(F)F)COC1 (centres unmarked) [Example 34, 5-Bromo-pyridine-2-carboxylic acid [3-(5-amino-3-difluoromethyl-3,6-dihydro-2H-[1,4]oxazin-3-yl)-phenyl]-amide hydrochloride] | 560 nM
15 | N#Cc1ccc(C(=O)Nc2cccc(C3(C(F)F)COCC(N)=N3)c2)nc1 (centres unmarked) [Example 36, 5-Cyano-pyridine-2-carboxylic acid [3-(5-amino-3-difluoromethyl-3,6-dihydro-2H-[1,4]oxazin-3-yl)-phenyl]-amide] | 350 nM
16 | Cc1cc(Br)cnc1C(=O)Nc1cccc(C2(C(F)F)COCC(N)=N2)c1 (centres unmarked) [Example 37, 5-Bromo-3-methyl-pyridine-2-carboxylic acid [3-(5-amino-3-difluoromethyl-3,6-dihydro-2H-[1,4]oxazin-3-yl)-phenyl]-amide] | 120 nM
17 | NC1=NC(c2cccc(NC(=O)c3ccc(C(F)(F)F)cn3)c2)(C(F)F)COC1 (centres unmarked) [Example 39, 5-Trifluoromethyl-pyridine-2-carboxylic acid [3-(5-amino-3-difluoromethyl-3,6-dihydro-2H-[1,4]oxazin-3-yl)-phenyl]-amide] | 780 nM
18 | NC1=NC(c2cccc(NC(=O)c3ncc(C(F)(F)F)cc3Cl)c2)(C(F)F)COC1 (centres unmarked) [Example 40, 3-Chloro-5-trifluoromethyl-pyridine-2-carboxylic acid [3-(5-amino-3-difluoromethyl-3,6-dihydro-2H-[1,4]oxazin-3-yl)-phenyl]amide] | 1000 nM
19 | Cc1cc(Cl)cnc1C(=O)Nc1cccc(C2(C(F)F)COCC(N)=N2)c1 (centres unmarked) [Example 41, 5-Chloro-3-methyl-pyridine-2-carboxylic acid [3-(5-amino-3-difluoromethyl-3,6-dihydro-2H-[1,4]oxazin-3-yl)-phenyl]-amide] | 350 nM
20 | NC1=NC(c2cc(NC(=O)c3ccc(Br)cn3)ccc2F)(C(F)F)COC1 (centres unmarked) [Example 42, 5-Bromo-pyridine-2-carboxylic acid [3-(5-amino-3-difluoromethyl-3,6-dihydro-2H-[1,4]oxazin-3-yl)-4-fluoro-phenyl]-amide hydrochloride] | 56 nM
21 | NC1=NC(c2cc(NC(=O)c3ccc(Cl)cn3)ccc2F)(C(F)F)COC1 (centres unmarked) [Example 43, 5-Chloro-pyridine-2-carboxylic acid [3-(5-amino-3-difluoromethyl-3,6-dihydro-2H-[1,4]oxazin-3-yl)-4-fluoro-phenyl]-amide] | 62 nM
22 | Cc1cc(Cl)cnc1C(=O)Nc1ccc(F)c([C@]2(C(F)F)COCC(N)=N2)c1 [Example 44, 5-Chloro-3-methyl-pyridine-2-carboxylic acid [3-((R)-5-amino-3-difluoromethyl-3,6-dihydro-2H-[1,4]oxazin-3-yl)-4-fluoro-phenyl]-amide] | 19 nM
23 | Cc1cc(Br)cnc1C(=O)Nc1ccc(F)c([C@]2(C(F)F)COCC(N)=N2)c1 [Example 45, 5-Bromo-3-methyl-pyridine-2-carboxylic acid [3-((R)-5-amino-3-difluoromethyl-3,6-dihydro-2H-[1,4]oxazin-3-yl)-4-fluoro-phenyl]amide] | 16 nM
24 | NC1=N[C@@](c2cc(NC(=O)c3ncc(C(F)(F)F)cc3Cl)ccc2F)(C(F)F)COC1 [Example 46, 3-Chloro-5-trifluoromethyl-pyridine-2-carboxylic acid [3-((R)-5-amino-3-difluoromethyl-3,6-dihydro-2H-[1,4]oxazin-3-yl)-4-fluoro-phenyl]-amide] | 71 nM
25 | NC1=N[C@@](c2cc(NC(=O)c3ccc(C(F)(F)F)cn3)ccc2F)(C(F)F)COC1 [Example 47, 5-Trifluoromethyl-pyridine-2-carboxylic acid [3-((R)-5-amino-3-difluoromethyl-3,6-dihydro-2H-[1,4]oxazin-3-yl)-4-fluoro-phenyl]-amide] | 56 nM
26 | Cc1cnc(C(=O)Nc2ccc(F)c([C@]3(C(F)F)COCC(N)=N3)c2)cn1 [Example 48, 5-Methyl-pyrazine-2-carboxylic acid [3-((R)-5-amino-3-difluoromethyl-3,6-dihydro-2H-[1,4]oxazin-3-yl)-4-fluoro-phenyl]-amide] | 550 nM

From patent US20120172359A1 (NOVARTIS AG, priority 2010, published 2012)
